Data reported in patent US9212205B2, “Nucleic acid binding compounds and methods of use” (University of Rochester, priority 2007, dated 2015).
Like-named read-outs stand apart in the source and are kept apart here.

How the values were obtained:
[1] = biological target: HIV-1 frameshift-inducing RNA stem-loop (SEQ ID NO:1); assay: Fluorescence titration of Cy-3 labeled HIV-1 RNA stem-loop; assay type: binding
Method: The binding of dicarba analogs to the HIV-1 frameshift-inducing RNA was measured using fluorescence spectroscopy. Fluorescence titrations were performed on a Varian Cary eclipse fluorescence spectrophotometer using 1 cm path-length quartz fluorescence cell. The solution of Cy-3 labeled HIV-1 RNA stem-loop in PBS buffer (400 μL, 400 nM) was taken in the cell and excited with a wavelength of 550 nm. A PMT voltage of 715 V was used for collecting the fluorescence data and the emission spectrum was collected from 555 to 600 nm wavelength range. The ligand solution in PBS buffer was added to the target RNA in the cell in either 2 or 4 μL increments and was allowed to equilibrate for 10 minutes before recording the emission spectrum. Statistical analysis of the data was carried out using Origin 7 (OriginLab corporation). Binding constants were determined by fitting the data to one-site binding model equation.
A 5′-Cy3 labeled upper stem-loop of HIV-1 RNA (SEQ ID NO:1) was titrated with increasing amount of the dicarba analogs in a phosphate buffer (PBS, pH 7.4) using the same protocol to that described in Example 3 above. The fluorescence intensity of the labeled RNA stem-loop decreased as a function of the ligand concentration. […] Normally, one would expect a greater difference between the affinities of the two isomers.
To further evaluate the binding selectivity of dicarba analogs to the frameshift-inducing stem-loop, fluorescence titrations were repeated in the presence of twenty-fold excess concentration of yeast tRNA. […] In an interesting result it was discovered that the monomeric compound (5) also bound to the HIV-1 RNA stem-loop with similar affinity as that of the other analogs, but the binding affinity was diminished in the presence of tRNA. […] Quinoline is a known intercalator of nucleotide bases and has the capability to interact with RNA non-specifically. But it is the peptidic part of the molecule in ligands 5-5 E and 5-5 Z that imparts specificity to the interaction between the ligand and the RNA stem-loop. The peptidic part on monomer 5 is insufficient to impart specificity to the interaction as evident from the results.

[2] = assay type: physicochemical
Method: The oxidation of 1-1 (FIG. 13, Scheme 2) to the disulfoxide was achieved by reacting 1-1 with H2O2 (1.1 eq.) and MoClO2 (0.05 eq) in 1:1 acetonitrile:water for 15 minutes, followed by purification by RP-HPLC (Jeyakumar et al., “Selective Oxidation of Sulfides to Sulfoxides and Sulfones at Room Temperature Using H2O2 and Mo(VI) Salt as Catalyst,” Tettrahedron Letters 47:4573-76 (2006), which is hereby incorporated by reference in its entirety).

[3] = biological target: (CUG)109 RNA (SEQ ID NO:8)-MBNL1 protein interaction; assay: Enzyme Fragmentation Complementation (EFC) assay of (CUG)109-MBNL1 binding inhibition; assay type: biochemical
Method: Small molecule-mediated inhibition of (CUG)109-MBNL1 binding was determined using an Enzyme Fragmentation Complementation (EFC) assay (Eglen et al., “β-Galactosidase Enzyme Fragment Complementation as A Novel Technology for High Throughput Screening,” Comb. Chem. High Throughput Screening 6:381-387 (2003), which is hereby incorporated by reference in its entirety). Briefly, this was performed by first immobilizing (CUG)109 RNA (SEQ ID NO:8) to a 96 well plate. Next, the immobilized RNA was incubated with recombinant MBNL1 fused to the PL enzyme donor peptide (PL-MBNL1, where “PL” is the commercial “ProLabel” enzyme donor peptide) (DiscoveRx PathHunter ProLabel Detection kit) in the presence of varying concentrations of small molecule inhibitor. The Enzyme Acceptor (EA-β-galactosidase) complement was then added, and the activity of the resulting plate—(CUG)109 bound (PL-MBNL1)-(EA-β-galactosidase) activity was monitored via a chemiluminsecent substrate. Only the EA-β-Gal bound to the PL-MBNL1 is capable of performing the luminescent reaction and, as such, any luminescence correlates to the amount of MBNL1 bound to the (CUG)109 immobilized on the plate. Wells lacking (CUG)109 RNA served as a background measure of non-specific luminescence and were subtracted from each experiment to yield a 0% bound value. Wells containing no small molecule inhibitor added served as 100% bound. […]

[4] = biological target: (CUG) repeat RNA SEQ ID NO:7; assay: Filter binding assay (FBA), SEQ ID NO:7; conditions: FBA, read-out: KD
Method: (§1) A filter binding assay system was utilized to provide a rapid initial assessment of binding affinity. All binding studies were performed in PBS pH 7.2+1 mM MgCl2 at 22° C. Various concentrations of small molecules were incubated with 10 nM FAM-labeled RNA in a total volume of 50 μl for 20 minutes. A slot blot apparatus was then assembled with a wet nitrocellulose filter, on top of a wet nylon filter, on top of filter paper. 40 μl of each binding mixture was then loaded into an individual well of the apparatus and allowed to penetrate the filters for 10 minutes. The peptidic disulfides selected from the DCL efficiently bind to the nitrocellulose filter. In contrast, the FAM-labeled RNA strands penetrate the nitrocellulose filter and are bound by the nylon filter. As such, RNA bound by the peptidic library members remains bound on the nitrocellulose filter, and unbound RNA passes to the nylon filter.
(§2) Densitometric analysis of the ratio of labeled RNA on the nitrocellulose to nylon filters allows quantification of binding (FIG. 15A). All binding isotherms were fit to the logistic binding model (Equation 1 above). The repetitive nature of the target sequences may in some cases result in binding stoichiometries that are more complex than a simple 1:1 interaction.
(§3) To test specificity and to confirm the determined binding affinities, filter binding assays and fluorescence titrations were performed with SEQ ID NOS: 7-11 (Table 5), and the HIV-1 frameshift stimulating RNA hairpin used in preceding Examples (SEQ ID NO:1, Table 5). Fluorescence titrations were performed using a Varian Cary Eclipse spectrophotometer. 2 μl of 50 or 500 μM small molecule were titrated into 400 μl of FAM labeled RNA sequences an allowed to equilibrate for at least 10 minutes, or until no change in fluorescence spectra was observed. Changes in fluorescence emission at 518 nm (excitation at 490 nm) were measured. Raw data were corrected for dilution dependant changes, and Em518 was plotted against small molecule concentration and fit to the one site binding equation y=(bmaz*x)/(KD+x).) Competition experiments utilizing target RNA (SEQ ID NO:7) and a 20-fold molar excess of total yeast tRNA were performed to measure non-specific RNA binding (Luedtke et al., “RNA-Ligand Interactions: Affinity and Specificity of Aminoglycoside Dimers and Acridine Conjugates to the HIV-1 Rev Response Element,” Biochemistry 42:11391-11403 (2003), which is hereby incorporated by reference in its entirety). Compound 1-1, the HIV-1 RNA ligand, served as a negative control.

[5] = biological target: (CUG)109 RNA (SEQ ID NO:8); assay: Filter binding assay (FBA), SEQ ID NO:8
Method: as §1, §2

[6] = biological target: variant (CUG) stem RNA (SEQ ID NO:9); assay: Filter binding assay (FBA), SEQ ID NO:9
Method: as §1, §2, §3

[7] = biological target: (CUG)/(CAG) complimentary RNA (SEQ ID NO:10); assay: Filter binding assay (FBA), SEQ ID NO:10
Method: as §1, §2, §3

[8] = biological target: (CUG) loop RNA (SEQ ID NO:11); assay: Filter binding assay (FBA), SEQ ID NO:11
Method: as §1, §2, §3

[9] = biological target: HIV-1 frameshift stimulating RNA hairpin (SEQ ID NO:1); assay: Filter binding assay (FBA), SEQ ID NO:1
Method: as §1, §2, §3

[10] = biological target: (CUG) repeat RNA SEQ ID NO:7; assay: Fluorescence titration (FT), SEQ ID NO:7; assay type: binding
Method: as §3

[11] = biological target: variant (CUG) stem RNA (SEQ ID NO:9); assay: Fluorescence titration (FT), SEQ ID NO:9; assay type: binding
Method: as §3

[12] = biological target: (CUG)/(CAG) complimentary RNA (SEQ ID NO:10); assay: Fluorescence titration (FT), SEQ ID NO:10; assay type: binding; parameters: key to KD: NC = Not Calculable.; NS = Not Saturatable
Method: as §3

[13] = biological target: (CUG) loop RNA (SEQ ID NO:11); assay: Fluorescence titration (FT), SEQ ID NO:11; assay type: binding; parameters: key: NC = Not Calculable.; NS = Not Saturatable
Method: as §3

[14] = 8 μM tRNA (twenty-fold excess), stem-loop 4 × 10^−7 M, PBS buffer, 25° C., read-out: Binding Affinity (Kd) in the presence of excess yeast tRNA
[15] = fluorescence titration, stem-loop 4 × 10^−7 M, PBS buffer, 25° C., read-out: Binding Affinity (Kd)

## CCc1nc2ccccc2cc1C(=O)N[C@@H](C[S+]([O-])[S+]([O-])C[C@H](NC(=O)c1cc2ccccc2nc1CC)C(=O)N1CCC[C@H]1C(=O)N[C@@H](Cc1ccccc1)C(=O)NCCCN)C(=O)N1CCC[C@H]1C(=O)N[C@@H](Cc1ccccc1)C(=O)NCCCN (stereo partly drawn) [1-1 disulfoxide]
[1]; freshly prepared compound, read-out: KD, fluorescence titration with the HIV1 frameshift inducing stemloop
  Kd: 0.41 µM
[2]
  degradation after synthesis: degraded within a few hours of synthesis

## CCc1nc2ccccc2cc1C(=O)N[C@@H](C/C=C/C[C@H](NC(=O)c1cc2ccccc2nc1CC)C(=O)N1CCC[C@H]1C(=O)N[C@@H](Cc1ccccc1)C(=O)NCCCN)C(=O)N1CCC[C@H]1C(=O)N[C@@H](Cc1ccccc1)C(=O)NCCCN [dimer 5-5 E]
[1]; [14]
  Kd: 0.45 ± 0.09 µM
[1]; [15]
  Kd: 0.41 ± 0.02 µM

## CCc1nc2ccccc2cc1C(=O)N[C@@H](C/C=C\C[C@H](NC(=O)c1cc2ccccc2nc1CC)C(=O)N1CCC[C@H]1C(=O)N[C@@H](Cc1ccccc1)C(=O)NCCCN)C(=O)N1CCC[C@H]1C(=O)N[C@@H](Cc1ccccc1)C(=O)NCCCN [dimer 5-5 Z]
[1]; [14]
  Kd: 0.29 µM
[1]; [15]
  Kd: 0.24 ± 0.05 µM

## NCCCCC(NC(=O)C(CSSCC(NC(=O)C(CC(N)=O)NC(=O)c1ccc2c(c1)OCO2)C(=O)NC(CCCCN)C(=O)NCCCN)NC(=O)C(CC(N)=O)NC(=O)c1ccc2c(c1)OCO2)C(=O)NCCCN (stereo not drawn) [dimer 6-6]
[3]
  Ki, inhibition of the (CUG)n MBNL1 interaction: do not show any inhibitory effect

## CCc1nc2ccccc2cc1C(=O)N[C@@H](CC(N)=O)C(=O)N[C@@H](CSSC[C@H](NC(=O)[C@@H]1CCCN1C(=O)c1cc2ccccc2nc1CC)C(=O)N[C@@H](CCCCN)C(=O)NCCCN)C(=O)N[C@@H](CCCCN)C(=O)NCCCN [dimer 7-9]
[4]; SEQ ID NO: 7 + 20 x tRNA
  Kd: 10 ± 0.7 µM
[4]; SEQ ID NO: 7
  Kd: 4.5 ± 0.6 µM
[5]
  Kd: 2.1 µM
[6]
  Kd: 6.4 ± 1 µM
[7]
  Kd: 19.5 ± 1 µM
[8]
  Kd: 4.6 ± 0.1 µM
[9]
  Kd: 22 ± 2 µM
[10]; SEQ ID NO: 7
  Kd: 2.1 µM
[10]; SEQ ID NO: 7 + 20 x tRNA
  Kd: 2.9 µM
[11]
  Kd: 1.6 µM
[12]
  KD: NC
[13]
  KD: NC

## NCCCC[C@H](NC(=O)[C@H](CSSC[C@H](NC(=O)[C@@H]1CCCN1C(=O)c1ccc2c(c1)OCO2)C(=O)N[C@@H](CCCCN)C(=O)NCCCN)NC(=O)[C@@H]1CCCN1C(=O)c1ccc2c(c1)OCO2)C(=O)NCCCN [dimer 8-8]
[4]; SEQ ID NO: 7 + 20 x tRNA
  Kd: 14 ± 4 µM
[4]; SEQ ID NO: 7
  Kd: 5.4 ± 0.6 µM
[5]
  Kd: 2.5 µM
[6]
  Kd: 9.3 ± 0.4 µM
[7]
  Kd: 21 ± 1.4 µM
[8]
  Kd: 7.5 ± 0.9 µM
[9]
  Kd: 41 ± 9 µM
[10]; SEQ ID NO: 7
  Kd: 1.4 µM
[10]; SEQ ID NO: 7 + 20 x tRNA
  Kd: 2.4 µM
[11]
  Kd: 2.1 µM
[12]
  KD: NC
[13]
  KD: NC

## CCc1nc2ccccc2cc1C(=O)N1CCC[C@H]1C(=O)N[C@@H](CSSC[C@H](NC(=O)[C@@H]1CCCN1C(=O)c1ccc2c(c1)OCO2)C(=O)N[C@@H](CCCCN)C(=O)NCCCN)C(=O)N[C@@H](CCCCN)C(=O)NCCCN [dimer 8-9]
[4]; SEQ ID NO: 7 + 20 x tRNA
  Kd: 9.6 ± 0.7 µM
[4]; SEQ ID NO: 7
  Kd: 4.1 ± 0.2 µM
[5]
  Kd: 1.9 µM
[6]
  Kd: 4.7 ± 0.1 µM
[7]
  Kd: 21 ± 1.8 µM
[8]
  Kd: 6 ± 0.1 µM
[9]
  Kd: 16 ± 4 µM
[10]; SEQ ID NO: 7
  Kd: 2.1 µM
[10]; SEQ ID NO: 7 + 20 x tRNA
  Kd: 4.2 µM
[11]
  Kd: 2.6 µM
[12]
  KD: NC
[13]
  KD: NC

## CCc1nc2ccccc2cc1C(=O)N1CCC[C@H]1C(=O)N[C@@H](CSSC[C@H](NC(=O)[C@@H]1CCCN1C(=O)c1cc2ccccc2nc1CC)C(=O)N[C@@H](CCCCN)C(=O)NCCCN)C(=O)N[C@@H](CCCCN)C(=O)NCCCN [dimer 9-9]
[4]; SEQ ID NO: 7 + 20 x tRNA
  Kd: 18 ± 2.1 µM
[4]; SEQ ID NO: 7
  Kd: 6.7 ± 0.2 µM
[5]
  Kd: 2.1 µM
[6]
  Kd: 7.1 ± 1.1 µM
[7]
  Kd: > 40 µM
[8]
  Kd: 8.5 ± 0.1 µM
[9]
  Kd: 24 ± 5 µM
[10]; SEQ ID NO: 7
  Kd: 2.2 µM
[10]; SEQ ID NO: 7 + 20 x tRNA
  Kd: 3.4 µM
[11]
  Kd: 1.7 µM
[12]
  Kd: 17 µM
[13]
  KD: NS

## C=CC[C@H](NC(=O)c1cc2ccccc2nc1CC)C(=O)N1CCC[C@H]1C(=O)N[C@@H](Cc1ccccc1)C(=O)NCCCN [monomer 5]
[1]; 8 μM tRNA (twenty-fold excess), stem-loop 4 × 10^−7 M, PBS buffer, 25° C.
  Binding Affinity (Kd) in the presence of excess yeast tRNA: No binding
[1]; [15]
  Kd: 0.37 ± 0.02 µM
